Source: the supplement of paper PMC8617591

Tests used:
[1] = tested on: Mycobacterium tuberculosis Erdman (autoluminescent); test: total FIC50 (Loewe) at 50% inhibition, three-drug combination (log2); higher = more antagonistic
Method: (§1)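 DiaMOND equipotent three-drug combination dose responses (10 doses, 1.5- or 2-fold spacing, centred on IC90) against autoluminescent M. tuberculosis Erdman in 8 in vitro models. Read-out is OD600, or luminescence for the intracellular and dormancy models, normalised to untreated wells. Hill-fit Einf, AUC25 and GRinf are potency metrics; FIC50 and FIC90 are total Loewe fractional inhibitory concentrations as log2 (negative = synergy).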

[2] = tested on: Mycobacterium tuberculosis Erdman (autoluminescent); test: total FIC90 (Loewe) at 90% inhibition, three-drug combination (log2); higher = more antagonistic
Method: as §1

[3] = tested on: Mycobacterium tuberculosis Erdman (autoluminescent); test: Einf, fitted maximum growth inhibition of three-drug combination (fraction); higher = stronger maximal inhibition
Method: as §1

[4] = tested on: Mycobacterium tuberculosis Erdman (autoluminescent); test: AUC25, normalised area under dose response up to IC25 (three-drug combination) (fraction (0-1)); higher = more potent at low dose
Method: as §1

[5] = tested on: Mycobacterium tuberculosis Erdman (autoluminescent); test: GRinf, maximum normalised growth rate inhibition (three-drug combination) (unitless (-1 to 1)); higher = less effect (negative = killing)
Method: as §1

CC(C)/N=c1\cc2n(-c3ccc(Cl)cc3)c3ccccc3nc-2cc1Nc1ccc(Cl)cc1 [clofazimine] + COc1c(N2C[C@@H]3CCCN[C@@H]3C2)c(F)cc2c(=O)c(C(=O)O)cn(C3CC3)c12 [moxifloxacin] + NC(=O)c1cnccn1 [pyrazinamide]
Conditions | AUC25, [4] | Einf, [3] | GRinf, [5] | total FIC50, [1] | total FIC90, [2]
in vitro model: acidic pH 5.7, time point: constant (~7 days, model-specific) | 0.0994 | 0.605 | -0.618 | 0.273 | –
in vitro model: acidic pH 5.7, time point: terminal (~4-5 doublings, model-specific) | 0.0958 | 0.951 | -0.261 | -0.216 | -0.195
in vitro model: intracellular J774, time point: constant = terminal | – | 0.975 | -0.333 | – | 0.42

Conditions | AUC25, [4] | Einf, [3] | GRinf, [5] | total FIC50, [1] | total FIC90, [2]
in vitro model: butyrate, time point: constant (~7 days, model-specific) | 0.127 | 0.968 | -0.193 | -0.173 | 0.847
in vitro model: butyrate, time point: terminal (~4-5 doublings, model-specific) | 0.0926 | 0.973 | -0.0738 | -0.0902 | 0.342
in vitro model: cholesterol 0.05 mM, time point: constant (~7 days, model-specific) | 0.129 | 0.646 | -0.114 | – | –
in vitro model: cholesterol 0.05 mM, time point: terminal (~4-5 doublings, model-specific) | 0.112 | 0.927 | -0.137 | 0.91 | –
in vitro model: cholesterol-high 0.2 mM, time point: constant (~7 days, model-specific) | 0.108 | 0.882 | -0.3 | 0.275 | –
in vitro model: cholesterol-high 0.2 mM, time point: terminal (~4-5 doublings, model-specific) | 0.0989 | 0.998 | -0.761 | 0.347 | 0.272
in vitro model: dormancy (butyrate + nitrate, low O2), time point: constant (~7 days, model-specific) | 0.113 | 0.919 | 0.162 | -0.332 | -0.522
in vitro model: dormancy (butyrate + nitrate, low O2), time point: terminal (~4-5 doublings, model-specific) | 0.0767 | 0.992 | -0.202 | 0.182 | 0.297
in vitro model: standard 7H9 glycerol, time point: constant = terminal | 0.111 | 0.974 | -0.232 | – | –
in vitro model: valerate, time point: constant (~7 days, model-specific) | 0.122 | 0.852 | -0.0384 | 0.546 | –
in vitro model: valerate, time point: terminal (~4-5 doublings, model-specific) | 0.067 | 0.914 | 0.0776 | 0.292 | 0.85

CC(C)/N=c1\cc2n(-c3ccc(Cl)cc3)c3ccccc3nc-2cc1Nc1ccc(Cl)cc1 [clofazimine] + COc1c(N2C[C@@H]3CCCN[C@@H]3C2)c(F)cc2c(=O)c(C(=O)O)cn(C3CC3)c12 [moxifloxacin] + O=[N+]([O-])c1cn2c(n1)OC[C@@H](OCc1ccc(OC(F)(F)F)cc1)C2 [pretomanid]
Conditions | AUC25, [4] | Einf, [3] | GRinf, [5] | total FIC50, [1] | total FIC90, [2]
in vitro model: acidic pH 5.7, time point: constant (~7 days, model-specific) | 0.111 | 0.66 | -0.331 | 0.779 | –
in vitro model: acidic pH 5.7, time point: terminal (~4-5 doublings, model-specific) | 0.0647 | 0.93 | -0.186 | 0.34 | 0.287
in vitro model: intracellular J774, time point: constant = terminal | – | 0.981 | -0.328 | – | -0.136

Conditions | AUC25, [4] | Einf, [3] | GRinf, [5] | total FIC50, [1] | total FIC90, [2]
in vitro model: butyrate, time point: constant (~7 days, model-specific) | 0.114 | 0.945 | -0.41 | 0.567 | 2.06
in vitro model: butyrate, time point: terminal (~4-5 doublings, model-specific) | 0.101 | 0.989 | -0.286 | 0.561 | 1.3
in vitro model: cholesterol 0.05 mM, time point: constant (~7 days, model-specific) | 0.112 | 0.707 | -0.152 | 0.31 | –
in vitro model: cholesterol 0.05 mM, time point: terminal (~4-5 doublings, model-specific) | 0.104 | 0.908 | -0.0989 | 0.933 | 0.0471
in vitro model: cholesterol-high 0.2 mM, time point: constant (~7 days, model-specific) | 0.108 | 0.921 | -0.386 | 0.526 | 2.16
in vitro model: cholesterol-high 0.2 mM, time point: terminal (~4-5 doublings, model-specific) | 0.111 | 1 | -0.905 | 0.181 | 0.651
in vitro model: dormancy (butyrate + nitrate, low O2), time point: constant (~7 days, model-specific) | 0.096 | 0.958 | 0.184 | 0.193 | -0.0601
in vitro model: dormancy (butyrate + nitrate, low O2), time point: terminal (~4-5 doublings, model-specific) | 0.0701 | 0.981 | -0.138 | 0.461 | 0.601
in vitro model: standard 7H9 glycerol, time point: constant = terminal | 0.112 | 0.974 | -0.306 | -0.121 | 0.463
in vitro model: valerate, time point: constant (~7 days, model-specific) | 0.117 | 0.881 | -0.0836 | 0.973 | –
in vitro model: valerate, time point: terminal (~4-5 doublings, model-specific) | 0.0939 | 0.934 | -0.0367 | 0.371 | -0.0804

CC(C)/N=c1\cc2n(-c3ccc(Cl)cc3)c3ccccc3nc-2cc1Nc1ccc(Cl)cc1 [clofazimine] + NC(=O)c1cnccn1 [pyrazinamide] + CO[C@H]1/C=C/O[C@@]2(C)Oc3c(C)c(O)c4c(O)c(c(/C=N/N5CCN(C6CCCC6)CC5)c(O)c4c3C2=O)NC(=O)/C(C)=C\C=C\[C@H](C)[C@H](O)[C@@H](C)[C@@H](O)[C@@H](C)[C@H](OC(C)=O)[C@@H]1C [rifapentine]
Conditions | AUC25, [4] | Einf, [3] | GRinf, [5] | total FIC50, [1] | total FIC90, [2]
in vitro model: acidic pH 5.7, time point: constant (~7 days, model-specific) | 0.0912 | 0.872 | -0.0882 | -0.248 | –
in vitro model: acidic pH 5.7, time point: terminal (~4-5 doublings, model-specific) | 0.0866 | 0.992 | -0.166 | -0.185 | -0.282
in vitro model: intracellular J774, time point: constant = terminal | – | 0.987 | -0.31 | – | -0.162

Conditions | AUC25, [4] | Einf, [3] | GRinf, [5] | total FIC50, [1] | total FIC90, [2]
in vitro model: butyrate, time point: constant (~7 days, model-specific) | 0.112 | 0.934 | -0.137 | 0.135 | 0.657
in vitro model: butyrate, time point: terminal (~4-5 doublings, model-specific) | 0.0906 | 0.969 | -0.0833 | 0.161 | 0.364
in vitro model: cholesterol 0.05 mM, time point: constant (~7 days, model-specific) | 0.142 | 0.621 | -0.201 | – | –
in vitro model: cholesterol 0.05 mM, time point: terminal (~4-5 doublings, model-specific) | 0.111 | 0.899 | -0.27 | 0.876 | –
in vitro model: cholesterol-high 0.2 mM, time point: constant (~7 days, model-specific) | 0.121 | 0.905 | -0.547 | 0.527 | –
in vitro model: cholesterol-high 0.2 mM, time point: terminal (~4-5 doublings, model-specific) | 0.0971 | 0.984 | -0.634 | 0.828 | 0.832
in vitro model: dormancy (butyrate + nitrate, low O2), time point: constant (~7 days, model-specific) | 0.0828 | 0.929 | 0.0852 | -0.285 | -1.22
in vitro model: dormancy (butyrate + nitrate, low O2), time point: terminal (~4-5 doublings, model-specific) | 0.0573 | 0.993 | -0.269 | -0.0992 | 0.0246
in vitro model: standard 7H9 glycerol, time point: constant = terminal | 0.115 | 0.936 | -0.0744 | -0.0271 | –
in vitro model: valerate, time point: constant (~7 days, model-specific) | 0.118 | 0.911 | -0.101 | 0.0622 | –
in vitro model: valerate, time point: terminal (~4-5 doublings, model-specific) | 0.0526 | 0.901 | 0.0624 | 0.391 | 1.33
